{"source": "patent US7041276B2", "about": "“Methods of screening agents for activity using teleosts” (priority 1998, dated 2006)", "key": {"mice": {"test_system": "mice", "settings": "i.p. (intraperitoneal); cited from earlier work"}, "rats": {"test_system": "rats", "settings": "i.p. (intraperitoneal); cited from earlier work"}, "mice and rats": {"test_system": "mice and rats", "settings": "TOXNET Web Search and other sources; cited from earlier work"}, "[1]": {"test_system": "liver of zebrafish embryos", "experiment": "Liver staining with streptavidin-peroxidase (DAB visual, ABTS colorimetric)", "type": "in vivo", "source_text": "Toxic activity in the liver of the treated whole animal can be assessed visually by using a rapid colorimetric staining procedure. This procedure is based on the use of a streptavidin (avidin) conjugated reporter enzyme, such as peroxidase, to detect naturally biotinylated carboxylase enzymes in the liver, gut, and digestive tube of whole animals, such as zebrafish embryos. These biotinyl-lysine containing enzymes, such as acetyl-CoA carboxylase and other carboxylases, are predominantly located in the liver and digestive tube. As a result, staining is organ specific (FIG. 11). Quantitative biotinylated assessment of the liver can be made. By visual detection of biotinylation, size and location of the liver can be determined.\nZebrafish embryos (4, 5 or 6 days old) were fixed with 4% paraformaldehyde for 1 hour at room temperature and treated with methanol 100% overnight at −20° C. The embryos were rehydrated and washed with PBST. […] The embryos were then washed twenty minutes three times with PBST and stained for peroxidase with two different dyes: Diaminobenzidine (DAB) (Pierce) (insoluble) to assess liver staining and 2,2′-Azino-bis(3-Ethylbenz-thiazoline-6-sulfonic acid)(ABTS)(Sigma)(soluble) to measure a quantitative visual signal using a colorimetric method. […] The ABTS signal was detected by measuring the absorbance of the solution at 405 nanometer […] using a spectrophotometer. […]"}, "zebrafish embryos": {"test_system": "zebrafish embryos", "experiment": "Five-day zebrafish toxicity testing", "type": "in vivo", "settings": "for Zebrafish specific toxicity observed: five-day exposure", "procedure": "Fertilized zebrafish embryos were obtained by natural spawning in our aquaculture facility. To reduce variations between batches, randomized samples of embryos from 3 or 4 independent matings were used. The test medium was prepared by combining 5 g of Instant Ocean Salt with 3 g of CaSO4 in 25 liters of distilled water, according to Westerfield, supra. The embryos were maintained in the test medium throughout the experiments. Embryos at 24 hours of development (with chorion) were exposed continuously for five days to chemical compounds at different concentrations of the chemical compounds and controls. In general, the concentrations ranged from 100 nanomolar (nM) to 100 micromolar (μM). Tests were repeated four times for each series of dilutions, and a standard deviation was calculated for each treatment (see “Statistical Methods” section). Ten embryos per concentration were exposed in a total volume of 1 ml (constant ratio of 100 μl/embryo) using a 24 multi-well plate. (Other sizes of multi-well plates, such as 96-well plates can also be used to facilitate screening.) The compounds were renewed daily. In all cases, 0.1% of dimethyl sulfoxide (DMSO) was used as a carrier solvent during the treatment. Controls with and without 0.1% DMSO were performed in all experiments. This approach has long been used to introduce anesthetics and other chemicals into fish embryos (Westerfield, supra).\nExperiments were carried out at a constant temperature (28–28.5° C.) in the dark to protect the compounds from decomposition due to light exposure. Dead embryos were removed daily, counted, and used to calculate the Median Lethal Concentration (LC50, see “Statistical Methods” section herein). Each day, surviving embryos were analyzed visually under a dissecting binocular microscope (Zeiss, amplification 30–50×). Macroscopic malformations (such as axial defects, embryolethality, growth inhibition, general malformations, including microcephaly, macrocephaly, tail truncation, tail malformation, loss of axial structures, such as somites, etc.) were observed, classified, and counted to assess whole animal toxicity. Compounds that were lethal or induced these or any noted malformations or disruptions during development (e.g., during the first 5 days of development) were further examined for toxic effects on organs. The embryonic developmental stage that is affected by the toxic compound can be determined. Organ toxicity can be assessed in surviving embryos using in situ hybridization, enzymatic assays, and immunochemistry procedures.\nToxic activity in the kidney (Pronephros) can be assessed visually by colorimetric staining of the kidney of the treated whole animal (e.g., zebrafish). Zebrafish pronephros express high levels of the enzyme alkaline phosphatase that can be easily assayed using a chromogenic dye. To stain kidneys in zebrafish embryos, embryos were fixed with 2% paraformaldehyde overnight at 4° C. and then treated with methanol 100% for 30 minutes at room temperature. […]\nFor the concentrations tested with aspirin and dexamethasone in these studies, there was no partial lethality and the geometric mean of the parameters “no mortality” (0%) and “mortality” (100%) of the effect concentration was taken as the LC50 and binomial confidence limits were calculated according to Stephan, “Methods for Calculating LD50” in Aquatic Toxicology and Hazard Evaluation (F. L. Mayce and J. L. Hamelink eds.) ASTM STP 634, pp. 65–84. […]"}}, "note": "Entries after “also recorded” stand apart in the source; their conditions may differ."}
{"smiles": "C[C@@H]1C[C@H]2[C@@H]3CCC4=CC(=O)C=C[C@]4(C)[C@@]3(F)[C@@H](O)C[C@]2(C)[C@@]1(O)C(=O)CO", "note": "[Dexamethasone]", "values": [{"measurement": "Mammalian models LD50", "setting": "mice", "value": "410 (mice, i.p.) mg/kg"}, {"measurement": "Mammalian models LD50", "setting": "rats", "value": "54 (rats, i.p.) mg/kg"}, {"measurement": "Mammalian models specific toxicity (from the literature)", "setting": "mice and rats", "value": "liver,; also recorded: gastro-"}, {"measurement": "liver size compared with control embryos", "setting": "[1]; 100 μM for five days, six day old embryo", "value": "dramatic reduction in liver size"}, {"measurement": "reduction of the colorimetric liver signal (ABTS, 405 nm) compared with untreated embryos", "setting": "[1]; 100 μM, five days", "value": "about 70%"}, {"measurement": "Zebrafish LD50", "setting": "zebrafish embryos; embryos exposed continuously for five days from 24 hours of development", "value": 324, "unit": "mg/L"}, {"measurement": "Zebrafish specific toxicity observed", "setting": "zebrafish embryos", "value": "liver,; also recorded: gastro-"}, {"measurement": "Zebrafish specific toxicity observed", "setting": "zebrafish embryos; listed as dexamethasone", "value": "Liver and gastrointestinal toxicity"}]}
